Here are results for five compounds from the supplement of paper PMC10307832.

Each structure is given as a SMILES string.

One assay deals with NCI-H1975. Kind of assay: relative viability (nuclei count vs DMSO), 5 days (fraction); higher = more cells survive. Particulars: first compound 0.08 µM. The essentials: (§1)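 Cells from lung cancer lines were seeded into 1536-well plates and, one day later, dosed by pin tool. Treatments were either a single drug or a fixed dose of an anchor drug with five library-drug doses (not always all listed) in √10 steps. After 5 days, nuclei were stained in a one-step fixation (final 0.05% Triton X-100, 1% formaldehyde, 1 ug/ml Hoechst) and counted on 4× images, and relative viability is the treated-to-vehicle nuclei ratio, as the median of duplicate plates.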
For `C=C1C(=O)O[C@@H](CCCCCCCC)[C@@H]1C(=O)O` [C-75] + CC(=O)c1c(C)c2cnc(Nc3ccc(N4CCNCC4)cn3)nc2n(C2CCCC2)c1=O [Palbociclib] (partner 0.5 µM), the relative viability was 0.67.

Still in this assay, the particulars now being: first compound 0.253 µM.
For the compound `Oc1nc(-c2ccc(C(F)(F)F)cc2)nc2c1CSCC2` [XAV939] + O=C(CCCCCCC(=O)Nc1ccccc1)NO [Vorinostat] (partner 1 µM), the relative viability worked out at 0.588.

Compound `C=C1C(=O)O[C@@H](CCCCCCCC)[C@@H]1C(=O)O` [C-75] + Nc1nc2[nH]cc(CCc3ccc(C(=O)N[C@@H](CCC(=O)O)C(=O)O)cc3)c2c(=O)[nH]1 [Pemetrexed] (partner 0.2 µM) gave a relative viability of 0.287.

In the case of `Oc1nc(-c2ccc(C(F)(F)F)cc2)nc2c1CSCC2` [XAV939] + O=C(c1cc(Cc2n[nH]c(=O)c3ccccc23)ccc1F)N1CCN(C(=O)C2CC2)CC1 [Olaparib] (partner 8 µM), the relative viability came out at 0.601.

With `Oc1nc(-c2ccc(C(F)(F)F)cc2)nc2c1CSCC2` [XAV939] + CC(=O)c1c(C)c2cnc(Nc3ccc(N4CCNCC4)cn3)nc2n(C2CCCC2)c1=O [Palbociclib] (partner 0.5 µM), the relative viability worked out at 0.483.

As for `C=C1C(=O)O[C@@H](CCCCCCCC)[C@@H]1C(=O)O` [C-75] + CC(=O)c1c(C)c2cnc(Nc3ccc(N4CCNCC4)cn3)nc2n(C2CCCC2)c1=O [Palbociclib] (partner 0.5 µM), the relative viability was determined as 0.433.

The same assay, now with this note: first compound 0.8 µM.
Consider `Oc1nc(-c2ccc(C(F)(F)F)cc2)nc2c1CSCC2` [XAV939] + O=C(CCCCCCC(=O)Nc1ccccc1)NO [Vorinostat] (partner 1 µM), for which the relative viability stood at 0.673.

As to `C=C1C(=O)O[C@@H](CCCCCCCC)[C@@H]1C(=O)O` [C-75] + Nc1nc2[nH]cc(CCc3ccc(C(=O)N[C@@H](CCC(=O)O)C(=O)O)cc3)c2c(=O)[nH]1 [Pemetrexed] (partner 0.2 µM), the relative viability turned out to be 0.262.

For `Oc1nc(-c2ccc(C(F)(F)F)cc2)nc2c1CSCC2` [XAV939] + O=C(c1cc(Cc2n[nH]c(=O)c3ccccc23)ccc1F)N1CCN(C(=O)C2CC2)CC1 [Olaparib] (partner 8 µM), the relative viability was determined as 0.622.

As to `Oc1nc(-c2ccc(C(F)(F)F)cc2)nc2c1CSCC2` [XAV939] + CC(=O)c1c(C)c2cnc(Nc3ccc(N4CCNCC4)cn3)nc2n(C2CCCC2)c1=O [Palbociclib] (partner 0.5 µM), the relative viability was 0.618.

In turn, `C=C1C(=O)O[C@@H](CCCCCCCC)[C@@H]1C(=O)O` [C-75] + CC(=O)c1c(C)c2cnc(Nc3ccc(N4CCNCC4)cn3)nc2n(C2CCCC2)c1=O [Palbociclib] (partner 0.5 µM) gave a relative viability of 0.525.

The same assay, now with this note: first compound 2.53 µM.
`Oc1nc(-c2ccc(C(F)(F)F)cc2)nc2c1CSCC2` [XAV939] + O=C(CCCCCCC(=O)Nc1ccccc1)NO [Vorinostat] (partner 1 µM) showed a relative viability of 0.667.

For `C=C1C(=O)O[C@@H](CCCCCCCC)[C@@H]1C(=O)O` [C-75] + Nc1nc2[nH]cc(CCc3ccc(C(=O)N[C@@H](CCC(=O)O)C(=O)O)cc3)c2c(=O)[nH]1 [Pemetrexed] (partner 0.2 µM), the relative viability stood at 0.264.

As to `Oc1nc(-c2ccc(C(F)(F)F)cc2)nc2c1CSCC2` [XAV939] + O=C(c1cc(Cc2n[nH]c(=O)c3ccccc23)ccc1F)N1CCN(C(=O)C2CC2)CC1 [Olaparib] (partner 8 µM), the relative viability worked out at 0.505.

As to `Oc1nc(-c2ccc(C(F)(F)F)cc2)nc2c1CSCC2` [XAV939] + CC(=O)c1c(C)c2cnc(Nc3ccc(N4CCNCC4)cn3)nc2n(C2CCCC2)c1=O [Palbociclib] (partner 0.5 µM), the relative viability came to 0.508.

Turning to `C=C1C(=O)O[C@@H](CCCCCCCC)[C@@H]1C(=O)O` [C-75] + CC(=O)c1c(C)c2cnc(Nc3ccc(N4CCNCC4)cn3)nc2n(C2CCCC2)c1=O [Palbociclib] (partner 0.5 µM), the relative viability is 0.484.

The assay is the same for the next values; noted with them: first compound 8 µM.
`C=C1C(=O)O[C@@H](CCCCCCCC)[C@@H]1C(=O)O` [C-75] + Nc1nc2[nH]cc(CCc3ccc(C(=O)N[C@@H](CCC(=O)O)C(=O)O)cc3)c2c(=O)[nH]1 [Pemetrexed] (partner 0.2 µM): the relative viability was found to be 0.292.

`C=C1C(=O)O[C@@H](CCCCCCCC)[C@@H]1C(=O)O` [C-75] + CC(=O)c1c(C)c2cnc(Nc3ccc(N4CCNCC4)cn3)nc2n(C2CCCC2)c1=O [Palbociclib] (partner 0.5 µM): the relative viability turned out to be 0.581.

The next assay deals with NCI-H2085. The description is as above. Particulars: first compound 0.08 µM. The essentials:
as §1
Turning to `Oc1nc(-c2ccc(C(F)(F)F)cc2)nc2c1CSCC2` [XAV939] + O=C(CCCCCCC(=O)Nc1ccccc1)NO [Vorinostat] (partner 1 µM), the relative viability worked out at 0.741.

The compound `C=C1C(=O)O[C@@H](CCCCCCCC)[C@@H]1C(=O)O` [C-75] + Nc1nc2[nH]cc(CCc3ccc(C(=O)N[C@@H](CCC(=O)O)C(=O)O)cc3)c2c(=O)[nH]1 [Pemetrexed] (partner 0.2 µM) had a relative viability of 0.875.

`Oc1nc(-c2ccc(C(F)(F)F)cc2)nc2c1CSCC2` [XAV939] + O=C(c1cc(Cc2n[nH]c(=O)c3ccccc23)ccc1F)N1CCN(C(=O)C2CC2)CC1 [Olaparib] (partner 8 µM) showed a relative viability of 0.782.

In the case of `Oc1nc(-c2ccc(C(F)(F)F)cc2)nc2c1CSCC2` [XAV939] + CC(=O)c1c(C)c2cnc(Nc3ccc(N4CCNCC4)cn3)nc2n(C2CCCC2)c1=O [Palbociclib] (partner 0.5 µM), the relative viability was 0.489.

`C=C1C(=O)O[C@@H](CCCCCCCC)[C@@H]1C(=O)O` [C-75] + CC(=O)c1c(C)c2cnc(Nc3ccc(N4CCNCC4)cn3)nc2n(C2CCCC2)c1=O [Palbociclib] (partner 0.5 µM) returned a relative viability of 0.491.

Staying with this assay, now noted: first compound 0.253 µM.
As for `Oc1nc(-c2ccc(C(F)(F)F)cc2)nc2c1CSCC2` [XAV939] + O=C(CCCCCCC(=O)Nc1ccccc1)NO [Vorinostat] (partner 1 µM), the relative viability turned out to be 0.736.

As to `C=C1C(=O)O[C@@H](CCCCCCCC)[C@@H]1C(=O)O` [C-75] + Nc1nc2[nH]cc(CCc3ccc(C(=O)N[C@@H](CCC(=O)O)C(=O)O)cc3)c2c(=O)[nH]1 [Pemetrexed] (partner 0.2 µM), the relative viability is 0.738.

The compound `Oc1nc(-c2ccc(C(F)(F)F)cc2)nc2c1CSCC2` [XAV939] + O=C(c1cc(Cc2n[nH]c(=O)c3ccccc23)ccc1F)N1CCN(C(=O)C2CC2)CC1 [Olaparib] (partner 8 µM) gave a relative viability of 0.719.

As to `Oc1nc(-c2ccc(C(F)(F)F)cc2)nc2c1CSCC2` [XAV939] + CC(=O)c1c(C)c2cnc(Nc3ccc(N4CCNCC4)cn3)nc2n(C2CCCC2)c1=O [Palbociclib] (partner 0.5 µM), the relative viability is 0.435.

As to `C=C1C(=O)O[C@@H](CCCCCCCC)[C@@H]1C(=O)O` [C-75] + CC(=O)c1c(C)c2cnc(Nc3ccc(N4CCNCC4)cn3)nc2n(C2CCCC2)c1=O [Palbociclib] (partner 0.5 µM), the relative viability turned out to be 0.403.

The assay is the same for the next values; noted with them: first compound 0.8 µM.
`Oc1nc(-c2ccc(C(F)(F)F)cc2)nc2c1CSCC2` [XAV939] + O=C(CCCCCCC(=O)Nc1ccccc1)NO [Vorinostat] (partner 1 µM) gave a relative viability of 0.789.

With `C=C1C(=O)O[C@@H](CCCCCCCC)[C@@H]1C(=O)O` [C-75] + Nc1nc2[nH]cc(CCc3ccc(C(=O)N[C@@H](CCC(=O)O)C(=O)O)cc3)c2c(=O)[nH]1 [Pemetrexed] (partner 0.2 µM), the relative viability was found to be 0.857.

In turn, `Oc1nc(-c2ccc(C(F)(F)F)cc2)nc2c1CSCC2` [XAV939] + O=C(c1cc(Cc2n[nH]c(=O)c3ccccc23)ccc1F)N1CCN(C(=O)C2CC2)CC1 [Olaparib] (partner 8 µM) showed a relative viability of 0.742.
